SMILES strings stand for the structures.

For orientation: IC50 means the concentration needed to halve the response being measured. For orientation: Cmax means the peak of the concentration-time curve. As a reminder, the AUC(0-inf) is the area under the concentration-time curve extrapolated to infinity. Higher therefore signals more exposure. In general, AUC(0-t) refers to exposure summed from dosing to a finite time, without extrapolation to infinity. A lower AUC(0-t) goes with low exposure. The term Tmax denotes the time at which the peak concentration occurs. One may read the half-life as the time in which the quantity being followed falls by half. What is called MRT is the average time that molecules of a dose stay in the body. Broadly, the clearance is the volume of plasma or blood freed of the substance per unit of time. Low readings indicate a low capacity for elimination, high ones a high capacity for elimination. As usually defined, the bioavailability is the share of a dose that reaches the circulation, judged against a reference dose that is usually intravenous. A lower bioavailability goes with little systemic uptake.

Data set [1] has as its system BaF3. Kind of data set: Inhibition of cell proliferation in mouse BaF3 cells expressing BCR-ABL T315I mutant assessed as cell viability at 100 uM measured after 48 hrs by trypan blue based assay (RVB=100%). It counts as functional. The note with it: read-out: Activity.
Data set [2] deals with BaF3. As to the kind of experiment: cells. To be noted: Mus musculus, BaF3, 72 h.
The test system of another data set is KU812 cell line. As to the kind of experiment: Cytotoxicity against human KU812 cells assessed as inhibition of cell growth measured after 72 hrs by MTT assay. It counts as functional, cell-based. The note with it: KU812, 72 h.
The test system of data set [3] is BaF3. As to the kind of experiment: cells. The note with it: Mus musculus, BaF3, 48 h.
In a further data set the test system is Jurkat. As to the kind of experiment: Cytotoxicity against human Jurkat cells assessed as inhibition of cell growth measured after 72 hrs by MTT assay. It counts as functional, cell-based.
Another data set deals with U-937. As to the kind of experiment: Cytotoxicity against human U-937 cells assessed as inhibition of cell growth measured after 72 hrs by MTT assay. It counts as functional, cell-based. The note with it: U-937, 72 h. A general note: Tetrazolium assays rely on reduction of a dye to a coloured formazan, in cell work by metabolically active cells.
Data set [4] has as its system K562. Kind of data set: cells. The note with it: Homo sapiens, K562, 72 h.
Data set [5] in a line: Toxicity in BALB/c nude mouse xenografted with BaF3 cells expressing BCR-ABL T315I mutant assessed as effect on body weight at 2.5 to 10 mg/kg, po administered once daily for 15 days. It counts as organism-based. The note with it: in vivo, 360 h, dose 2.5-10 mg/kg, time 15 day.
The test system of data set [6] is K562. To be noted: Homo sapiens.
Data set [7] in a line: Cmax in ICR mouse at 5 mg/kg, iv measured upto 24 hrs by LC/MS/MS analysis. It counts as ADME, organism-based. More on the design: route intravenous, dose 5 mg/kg, time <=24. To be noted: in vivo.
Data set [8] can be described thus: AUC (0 to infinity) in ICR mouse at 15 mg/kg, po measured upto 24 hrs by LC/MS/MS analysis. To be noted: in vivo. It counts as ADME, organism-based. Also on record: route oral, dose 15 mg/kg, time <=24.
Data set [9] can be described thus: Volume of distribution at steady state in ICR mouse at 5 mg/kg, iv measured upto 24 hrs by LC/MS/MS analysis. It counts as ADME, organism-based. To be noted: in vivo, read-out: Vdss.
Data set [10] can be described thus: AUC (0 to t) in ICR mouse at 5 mg/kg, iv measured upto 24 hrs by LC/MS/MS analysis. It counts as ADME, organism-based. More on the design: route intravenous, dose 5 mg/kg, time <=24. The note with it: in vivo.
In data set [11] the test system is BaF3. Kind of data set: animal or person. The note with it: Mus musculus, BaF3, po, 360 h, read-out: TGI.
Data set [12] in a line: Tmax in ICR mouse at 15 mg/kg, po measured upto 24 hrs by LC/MS/MS analysis. It counts as ADME, organism-based. To be noted: in vivo.
A short description of data set [13]: Half life in ICR mouse at 5 mg/kg, iv measured upto 24 hrs by LC/MS/MS analysis. It counts as ADME, organism-based. The note with it: in vivo.
The nature of data set [14]: MRT in ICR mouse at 5 mg/kg, iv measured upto 24 hrs by LC/MS/MS analysis. It counts as ADME, organism-based. The note with it: in vivo.
A short description of data set [15]: Cmax in ICR mouse at 15 mg/kg, po measured upto 24 hrs by LC/MS/MS analysis. It counts as ADME, organism-based. More on the design: route oral, dose 15 mg/kg, time <=24. To be noted: in vivo.
Data set [16] can be described thus: AUC (0 to infinity) in ICR mouse at 5 mg/kg, iv measured upto 24 hrs by LC/MS/MS analysis. It counts as ADME, organism-based. More on the design: route intravenous, dose 5 mg/kg, time <=24. To be noted: in vivo.
Data set [17] is described as follows: Clearance in ICR mouse at 5 mg/kg, iv measured upto 24 hrs by LC/MS/MS analysis. To be noted: in vivo. It counts as ADME, organism-based.
Data set [18] in a line: Oral bioavailability in ICR mouse at 15 mg/kg measured upto 24 hrs by LC/MS/MS analysis. It counts as ADME, organism-based. To be noted: in vivo.
Data set [19] in a line: Half life in ICR mouse at 15 mg/kg, po measured upto 24 hrs by LC/MS/MS analysis. It counts as ADME, organism-based. The note with it: in vivo.
Data set [20] can be described thus: AUC (0 to t) in ICR mouse at 15 mg/kg, po measured upto 24 hrs by LC/MS/MS analysis. Also on record: route oral, dose 15 mg/kg, time <=24. It counts as ADME, organism-based. The note with it: in vivo.
Data set [21] is described as follows: MRT in ICR mouse at 15 mg/kg, po measured upto 24 hrs by LC/MS/MS analysis. It counts as ADME, organism-based. To be noted: in vivo.
Data set [22] can be described thus: Tmax in ICR mouse at 5 mg/kg, iv measured upto 24 hrs by LC/MS/MS analysis. It counts as ADME, organism-based. To be noted: in vivo.

In the case of `CN1CCN(Cc2ccc3nc(-c4ccc(Cl)c(C#Cc5ccc(NC6CC6)nn5)c4)[nH]c3c2)CC1`, the viability at 100 µM in the data set on BaF3 [1] is 74.8%.
For the compound `Cc1ccc(C(=O)Nc2ccc3c(c2)C(F)(F)C[C@H]3N2CCN(C)CC2)cc1C#Cc1cnc(NC2CC2)nc1`, the IC50 in the data set with BaF3 [2] is 62.5 nM; in the data set on KU812 cell line, 5.2 nM; in the data set with BaF3 [3], more than 100 nM; with Jurkat, 400 nM; with U-937 it was 465 nM; in the data set with K562 [4], 10.4 nM.
With `Cc1cn(-c2ccc3nc(-c4ccc(C)c(C#Cc5cnc6cccnn56)c4)[nH]c3c2)cn1`, the viability at 100 µM in the data set with BaF3 [1] was found to be 94.1%.
The same measure, in the same setting: under `Cc1ccc(-c2nc3ccc(CN4CCN(C)CC4)cc3[nH]2)cc1C#Cc1ccc(NC(C)C)nn1` stands 96.5%; under `CN1CCN(Cc2ccc3nc(-c4ccc(Cl)c(C#Cc5cnc6cccnn56)c4)[nH]c3c2)CC1`, 94.5%.
Still for that read-out and setting: in the case of `Cc1ccc(-c2nc3ccc(CN4CCN(C)CC4)cc3[nH]2)cc1C#Cc1ccc(NC2CC2)nn1` it was 88.9%.
With `CN1CCN(Cc2ccc3nc(-c4ccc(Cl)c(C#Cc5cnc(NC6CC6)nc5)c4)[nH]c3c2)CC1`, the viability at 100 µM in the data set with BaF3 [1] was found to be 105%.
Turning to `CC(C)Nc1ccc(C#Cc2cc(-c3nc4ccc(CN5CCN(C)CC5)cc4[nH]3)ccc2Cl)nn1`, the viability at 100 µM in the data set on BaF3 [1] was 100%.
Turning to `CN1CCN(Cc2ccc3nc(-c4ccc(Cl)c(C#Cc5ccc(NC6CCC6)nn5)c4)[nH]c3c2)CC1`, the viability at 100 µM with BaF3 [1] was 97.4%.
Still for that read-out and setting: under `Cc1ccc(-c2nc3ccc(CN4CCN(C)CC4)cc3[nH]2)cc1C#Cc1ccc(NC2CCC2)nn1` stands 110%; under `CN1CCN(Cc2ccc(NC(=O)N3CCCC(C#Cc4cnc5cccnn45)C3)cc2C(F)(F)F)CC1` (stereo unspecified), 84.3%.
Regarding `Cc1ccc(C(=O)Nc2ccc3c(c2)C(F)(F)C[C@@H]3N2CCN(C)CC2)cc1C#Cc1cnc(NC2CC2)nc1`, the IC50 in the data set with BaF3 [2] stood at 3.5 nM; in the data set on KU812 cell line, 0.2 nM; in the data set with BaF3 [3], 12.4 nM; in the data set on Jurkat, 280 nM; in the data set on U-937 it was 165 nM; in the data set with K562 [4] it was 0.6 nM.
As to `Cc1ccc(-c2nc3ccc(CN4CCN(C)CC4)cc3[nH]2)cc1C#Cc1cnc(NC2CC2)nc1`, the viability at 100 µM in the data set with BaF3 [1] was determined as 90.4%.
`Cc1ccc(C(=O)Nc2ccc3c(c2)C(F)(F)C[C@@H]3N2CCN(C)CC2)cc1C#Cc1cnc2cccnn12.Cl`: the Activity entry in data set [5] was “Non-Toxic”.
In the case of `Cc1ccc(C(=O)Nc2ccc3c(c2)C(F)(F)C(N2CCN(C)CC2)C3)cc1C#Cc1cnc2cccnn12` (stereo unspecified), in the data set on BaF3 [1], the viability at 100 µM was 91.5%.
For `CN1CCN(Cc2ccc(NC(=O)N3CCC(C#Cc4cnc5cccnn45)C3)cc2C(F)(F)F)CC1` (stereo unspecified), in the data set on BaF3 [1], the viability at 100 µM came out at 91.9%.
On the same count and under the same terms, in the case of `Cc1ccc(-c2nc3ccc(CN4CCN(C)CC4)cc3[nH]2)cc1C#Cc1cnc2cccnn12` it was 84.5%.
Regarding `Cc1ccc(NC(=O)c2ccc(CN3CCN(C)CC3)cc2)cc1Nc1nccc(-c2cccnc2)n1` [IMATINIB], the IC50 in the data set with BaF3 [2] is more than 100 nM; in the data set with KU812 cell line, 51.3 nM; in the data set on BaF3 [3], more than 100 nM; with Jurkat, more than 1000 nM; with U-937, more than 1000 nM; in the data set on K562 [4] it was 82.9 nM.
For the compound `Cc1cn(-c2cc(NC(=O)c3ccc(C)c(Nc4nccc(-c5cccnc5)n4)c3)cc(C(F)(F)F)c2)cn1` [NILOTINIB], the IC50 in the data set on BaF3 [2] was 11.8 nM; in the data set with KU812 cell line it was 1.8 nM; with BaF3 [3], more than 100 nM; in the data set with Jurkat, more than 1000 nM; with U-937, more than 1000 nM; in the data set with K562 [4] it was 1.8 nM.
For `Cc1ccc(C(=O)Nc2ccc(CN3CCN(C)CC3)c(C(F)(F)F)c2)cc1C#Cc1cnc2cccnn12` [PONATINIB], the IC50 with K562 [6] amounted to 10 nM; with BaF3 [2], 0.9 nM; with KU812 cell line, 0.1 nM; in the data set with Jurkat, 295 nM; in the data set on U-937 it was 246 nM. Besides, the figures for the Cmax in data set [7] and in [15] were 270 ng/mL and 70 ng/mL, respectively. Also, the AUC(0-inf) in data set [8] stood at 432 ng·h/mL; in data set [16], 528 ng·h/mL. Besides, the viability at 100 µM in the data set on BaF3 [1] worked out at 2.8%. Further, the Vd in data set [9] was determined as 41 L/kg. Also, the exposure AUC(0-t) at 24 h in data set [10] came out at 497 ng·h/mL; in data set [20] it was 363 ng·h/mL. Further, in the data set with BaF3 [11], the inhibition in vivo at 5 mg/kg is 53%. In addition, the Tmax in [12] was 1.5 h; in data set [22] it was 4.8 min. In addition, the half-life is 3.28 h in data set [13] and 2.84 h in [19]. Further, the MRT worked out at 4.29 h in data set [14] and 5.25 h in data set [21]. The same compound gave a clearance in [17] of 161 mL/min/kg. The same compound yielded a bioavailability in data set [18] of 27%.

The record behind these values is ChEMBL document CHEMBL5038588 (J Med Chem, 2021).
